For 101 compounds, Kd results are on record in PubChem BioAssay AID1648 (Sanford-Burnham Center for Chemical Genomics, 2009).

The target of this experiment is Serine/threonine-protein kinase mTOR (Homo sapiens) (UniProt P42345). As to the kind of experiment: mTOR FRB domain ligand binding – biophysical, NMR (AID 1648). The following applies: NMR binding to FRB domain, chemical shift.

Calls of active or inactive are those of the source. How the calls were made is not given here.

Serine/threonine-protein kinase mTOR (Homo sapiens), sequence (P42345 2015-2114): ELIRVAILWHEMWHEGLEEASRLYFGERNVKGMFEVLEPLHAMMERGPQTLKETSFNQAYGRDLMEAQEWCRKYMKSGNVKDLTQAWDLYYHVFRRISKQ

In general, Kd refers to the free concentration of one partner at which half of the binding sites on the other are occupied at equilibrium, for simple one-to-one binding. Turning to `OC12CC3CC(C1)C1(NCCS1)C(C3)C2` (stereo unspecified), the Kd was > 4 mM (inactive).

For the compound `Cc1occc1C(=O)NCc1ccccn1`, the Kd was > 4 mM (inactive).

For `NC(=O)c1ccc(N2CCCCC2)c(N)c1`, the Kd is > 4 mM (inactive).

On to `Cc1nn(-c2ccccc2)c(Cl)c1C(N)=O`, for which the Kd is > 4 mM (inactive).

With `CSc1ccccc1NC(=O)c1ccncc1`, the Kd is > 4 mM (inactive).

In the case of `CCc1ccccc1OCc1nnc(N)s1`, the Kd is > 4 mM (inactive).

For `Cc1ccccc1CSc1nncn1N`, the Kd is > 4 mM (inactive).

Take `C(=N\c1nccs1)/c1cccnc1`: the Kd was > 4 mM (inactive).

As to `Cc1cc(C(=O)Nc2ccc3c(c2)OCCO3)c(C)o1`, the Kd was > 4 mM (inactive).

Turning to `O=S(=O)(Cc1ccc(Cl)cc1)N1CCCC1`, the Kd is > 4 mM (inactive).

For `S=C(Nc1ccccc1)Nc1nncs1`, the Kd is > 4 mM (inactive).

Take `COC(=O)C1Cc2ccccc2N1` (stereo unspecified): the Kd was > 4 mM (inactive).

For the compound `Nc1ccc(S(=O)(=O)Nc2ccc(F)cc2F)cc1`, the Kd was > 4 mM (inactive).

For `Cc1cc(O)cc(=O)o1`, the Kd was > 4 mM (inactive).

In the case of `CC1(O)CC2C(CC1O)C2(C)C` (stereo unspecified), the Kd was > 4 mM (inactive).

Regarding `COc1ccccc1-c1cn[nH]c(=S)n1`, the Kd is > 4 mM (inactive).

Take `O=S1(=O)CCC(NCc2ccccc2)C1` (stereo unspecified): the Kd was > 4 mM (inactive).

For the compound `O=C1C2C3C=CC(O3)C2C(=O)N1c1ccccc1` (stereo unspecified), the Kd is > 4 mM (inactive).

As to `Cc1ccc(NC(=O)C2CCCNC2=O)nc1` (stereo unspecified), the Kd is > 4 mM (inactive).

Consider `S=c1[nH]c2cccnc2[nH]1`, for which the Kd is > 4 mM (inactive).

In the case of `O=C(Nc1cccnc1)c1c(F)cccc1F`, the Kd was > 4 mM (inactive).

`Cn1nnc2cc(C(=O)NCc3ccco3)ccc21`: the Kd is > 4 mM (inactive).

As to `CC(C)=NNC(=O)C(=O)NC(C)(C)C`, the Kd is > 4 mM (inactive).

On to `CCSc1n[nH]c(=O)[nH]c1=O`, for which the Kd was > 4 mM (inactive).

`COC(=O)[C@]1(C)CC[C@]2(C)CC[C@]3(C)C4=CC=C5C(=CC(=O)C(O)=C5C)[C@]4(C)CC[C@@]3(C)[C@@H]2C1`: the Kd is > 4 mM (inactive).

For the compound `Cc1ccc(C)c(C(=O)NCc2ccncc2)c1`, the Kd was > 4 mM (inactive).

On to `O=C1CCCc2c(O)cccc21`, for which the Kd was > 4 mM (inactive).

As to `CC(=O)Oc1c(C)c(C)c2c(c1C)CCC(C)(CCCC(C)CCCC(C)CCCC(C)C)O2` (stereo unspecified), the Kd is > 4 mM (inactive).

`CC(=O)Nc1ccc(Cl)c(C(N)=O)c1`: the Kd is > 4 mM (inactive).

With `CC(=O)Nc1cccc(NC(=O)c2cccnc2)c1`, the Kd is > 4 mM (inactive).

With `NC(=O)C1CCN(C(=S)c2cccs2)CC1`, the Kd is > 4 mM (inactive).

For `CN1CCC(N2CCCC(C(N)=O)C2)CC1` (stereo unspecified), the Kd was > 4 mM (inactive).

With `COc1ccc(-c2cc(=O)c3c(O)cc(O[C@H]4O[C@H](CO[C@@H]5O[C@@H](C)[C@H](O)[C@@H](O)[C@H]5O)[C@@H](O)[C@H](O)[C@H]4O)cc3o2)cc1`, the Kd is > 4 mM (inactive).

Turning to `COc1cc2c(cc1OC)-c1nnnn1C(C)(C)C2`, the Kd is > 4 mM (inactive).

For the compound `CCOC(=O)c1cnn2ccccc12`, the Kd is > 4 mM (inactive).

On to `CNC(=O)C(=O)Nc1ccc(F)cc1`, for which the Kd is > 4 mM (inactive).

Take `Cc1cc(NC(=O)NCCCSc2nncn2C)no1`: the Kd was > 4 mM (inactive).

For the compound `NCCCCN=C(N)N`, the Kd was > 4 mM (inactive).

For the compound `Cc1ccc(-n2[nH]c(C)cc2=O)cc1`, the Kd was > 4 mM (inactive).

Take `CCC(C)C(=O)OC1[C@@H]2CC3=C4CC(=O)O[C@@H](c5ccoc5)[C@]4(C)CCC3C(C)(C2=O)[C@@H](CC(=O)OC)C1(C)C` (stereo partly specified): the Kd is > 4 mM (inactive).

As to `COc1cccc(NC(=O)c2cccs2)c1`, the Kd is > 4 mM (inactive).

Regarding `O=S1(=O)NC(=NCc2ccccc2)c2ccccc21`, the Kd is > 4 mM (inactive).

In the case of `O=C(c1cccc(-n2cnnn2)c1)N1CCOCC1`, the Kd was > 4 mM (inactive).

Regarding `COCC(=O)Nc1ccc(F)cc1F`, the Kd is > 4 mM (inactive).

In the case of `Cc1nnc(C)n1/N=C/c1cccs1`, the Kd was > 4 mM (inactive).

Take `NC1=NC(=O)/C(=C/c2ccc(O)c(Cl)c2)S1`: the Kd is > 4 mM (inactive).

As for `CCOC(=O)C1CCC(=O)c2cccn21` (stereo unspecified), the Kd was > 4 mM (inactive).

Regarding `COCCn1cnc2cc(C)c(C)cc21`, the Kd was > 4 mM (inactive).

With `CCOc1cc(S(=O)(=O)N2CCOCC2)ccc1F`, the Kd was > 4 mM (inactive).

For `Nc1cccc2nonc12`, the Kd is > 4 mM (inactive).

As to `Nc1ccc2nsnc2c1`, the Kd was > 4 mM (inactive).

As to `CC[C@]12CCCN3CCc4c(n(c5ccccc45)[C@](O)(C(=O)OC)C1)[C@@H]32`, the Kd is > 4 mM (inactive).

Take `O=C1CSC2(CN3CCC2CC3)N1` (stereo unspecified): the Kd is > 4 mM (inactive).

As to `CN(C)c1ccc(C2CC(=O)CC(=O)C2)cc1`, the Kd was > 4 mM (inactive).

As to `CC(=O)Nc1nnc(-c2ccco2)o1`, the Kd is > 4 mM (inactive).

With `O=c1cccc2n1CC1CC2CN2CCCC[C@@H]12` (stereo partly specified), the Kd was > 4 mM (inactive).

With `OC12CC3CC(CC(C3)C1)C2`, the Kd was > 4 mM (inactive).

With `COCc1cc(Cl)nc(-c2csc(C)n2)n1`, the Kd is > 4 mM (inactive).

For `CC(O)c1ccc(C(C)O)cc1` (stereo unspecified), the Kd was > 4 mM (inactive).

As for `COc1ccc([C@@H]2CC(=O)c3c(O)cc(O[C@@H]4O[C@H](CO[C@H]5O[C@@H](C)[C@H](O)[C@@H](O)[C@H]5O)[C@@H](O)[C@H](O)[C@H]4O)cc3O2)cc1O`, the Kd was > 4 mM (inactive).

`Cc1cc(=O)[nH]c(NCC(=O)O)n1`: the Kd was > 4 mM (inactive).

As to `Cc1ccccc1NC(=O)/C=C\C(N)=O`, the Kd is > 4 mM (inactive).

For `O=C(O)CCC(=O)NCc1cccnc1`, the Kd is > 4 mM (inactive).

Turning to `Cc1ccc(-c2nnc3sc(-c4ccncc4)nn23)cc1`, the Kd was > 4 mM (inactive).

As for `CC(=O)c1c(C)nc(-c2ccc(F)cc2)n1O`, the Kd is > 4 mM (inactive).

Regarding `O=C(O)C1CC(=O)N(C2Cc3ccccc3C2)C1` (stereo unspecified), the Kd is > 4 mM (inactive).

`Cc1scc(C(=O)Nc2ccon2)c1-c1ccccc1`: the Kd was > 4 mM (inactive).

Turning to `O=C(NN1C(=O)c2ccccc2C1=O)c1cccs1`, the Kd is > 4 mM (inactive).

Take `CCSc1nnc(-c2ccccc2N)c(=O)[nH]1`: the Kd is > 4 mM (inactive).

`COC1(C)CCC2OC2(C)CCC2C1CC2(C)C` (stereo unspecified): the Kd was > 4 mM (inactive).

As for `Nc1cc(N)nc(SCc2cccnc2)n1`, the Kd is > 4 mM (inactive).

In the case of `O=C(O)c1ncoc1-c1ccccc1`, the Kd was > 4 mM (inactive).

In the case of `Cc1nc2ccccc2c(=O)n1CCCn1ccnc1`, the Kd was > 4 mM (inactive).

For `CCOC(=O)c1c(C)n([O-])c2ccccc2[n+]1=O`, the Kd was > 4 mM (inactive).

In the case of `CCCc1cc2c(c(NC(C)=O)n1)c(=O)oc1ccccc12`, the Kd is > 4 mM (inactive).

In the case of `O=C(Nn1cnnc1)c1csc2c1CCCC2`, the Kd was > 4 mM (inactive).

In the case of `O=C(Nc1ccncc1)c1cncc(Br)c1`, the Kd is > 4 mM (inactive).

For `CC(=O)NC12CC3CC(C)(C1)CC(NC(C)=O)(C3)C2`, the Kd is > 4 mM (inactive).

As to `O=C(Nc1ccccc1)C(=O)NC1CC1`, the Kd was > 4 mM (inactive).

In the case of `Cc1occc1C(=O)Nc1ccc2c(c1)OCO2`, the Kd is > 4 mM (inactive).

For `CC(=O)NCc1nc2ccccc2[nH]1`, the Kd is > 4 mM (inactive).

As to `CC1(C)CC2(C)N(N)C(=O)CN2C(=S)N1` (stereo unspecified), the Kd is > 4 mM (inactive).

For `O=c1[nH]c(CN2CCN(CCO)CC2)nc2ccccc12`, the Kd is > 4 mM (inactive).

`O=C(O[C@@H]1Cc2c(O)cc(O)cc2O[C@@H]1c1cc(O)c(O)c(O)c1)c1cc(O)c(O)c(O)c1`: the Kd was > 4 mM (inactive).

`COc1cccc(N2CCN(C(=O)c3cccnc3)CC2)c1`: the Kd was > 4 mM (inactive).

`CC1=CC2C(C(C)C)CCC(C)(O)C2CC1` (stereo unspecified): the Kd is > 4 mM (inactive).

In the case of `O=c1cc(-c2ccccc2)oc2cc(O)c(O)c(O)c12`, the Kd was > 4 mM (inactive).

For the compound `COc1cc(O)c2c(=O)cc(-c3ccc(OC)c(-c4c(O)cc(O)c5c(=O)cc(-c6ccc(O)cc6)oc45)c3)oc2c1`, the Kd was > 4 mM (inactive).

`CC(C)=CCCC1(C)C=Cc2c(O)c3c(c(CC=C(C)C)c2O1)OC12C(=CCCC1C(C)(C)O[C@@]2(C/C=C(\C)C(=O)O)C(=O)O)C3=O` (stereo partly specified): the Kd is > 4 mM (inactive).

On to `CC(=O)O[C@@H]1CC2C(C)(C)CCC(=O)[C@]2(C)C2CC[C@@]3(C)[C@H](c4ccoc4)OC(=O)C4OC43[C@@]21C` (stereo partly specified), for which the Kd is > 4 mM (inactive).

On to `COc1ccc2c(c1)OC1(O)COc3cc(OC)c(OC)cc3C1=C2` (stereo unspecified), for which the Kd was > 4 mM (inactive).

In the case of `CC1/C(=N/O)C[C@@H]2C[C@H]1C2(C)C` (stereo partly specified), the Kd is > 4 mM (inactive).

As to `O=C(CSc1nc2ccccc2[nH]1)N1CCCCC1`, the Kd is > 4 mM (inactive).

Take `O=c1[nH]c(=O)n(-c2ccc(F)cc2)c(O)c1/C=C1/C=CC=N1`: the Kd was > 4 mM (inactive).

`N[C@@H](CCC(=O)N[C@@H](CS)C(=O)NCC(=O)O)C(=O)O`: the Kd is > 4 mM (inactive).

As for `COc1c2c(cc3cc[n+](C)cc13)OCO2`, the Kd was > 4 mM (inactive).

Turning to `NS(=O)(=O)c1ccc(N=C2NC(=O)CS2)cc1`, the Kd is > 4 mM (inactive).

Turning to `COc1cc2c(cc1OC)C1=C(C#N)CCC(=O)N1CC2`, the Kd was > 4 mM (inactive).

As to `O=C(O)c1ccc2c(c1)OCCCO2`, the Kd was > 4 mM (inactive).

Consider `O=C(Nn1cnnc1)c1cccc(C(F)(F)F)c1`, for which the Kd was > 4 mM (inactive).

On to `Fc1ccc(Br)cc1/C=N/n1cnnc1`, for which the Kd was > 4 mM (inactive).
